Values of other authors in patent publication US9192673B2, “Fine dry particulate resveratrol active agent compositions and topical formulations including the same” (priority 2013, dated 2015).

Conditions: background statement

- solubility in water and in lipophilic components: almost insoluble
SMILES: Oc1ccc(/C=C/c2cc(O)cc(O)c2)cc1 [resveratrol, 3,5,4′-trihydroxystilbene]
